Data reported in patent US9433667B2, “Cancer vaccines and vaccination methods” (Cedars-Sinai Medical Center, priority 2006, dated 2016).

Columns and labels:
[1] = tested on: T2 pulsed with gp100 native peptide; assay: IFN-γ production of gp100 APL-specific CTLs induced in vitro from patient-derived PBMCs; type: cell-based, human; conditions: among six CTLs, two HLA-A*0201 GBM patients, P<0.05 vs gp100 (2M)
Experimental: FIGS. 2A and 2B are bar graphs that show IFN-γ levels after in vitro induction of CTL in patient-derived PBMCs with dendritic cells pulsed with gp100(2M) or superagonist gp100 peptides in accordance with an embodiment of the present invention in two separate patients.
(§1) The following protocol can be used to produce antigen specific CTL in vitro from patient derived PBMC. To generate dendritic cells, the plastic adherent cells from PBMCs are cultured in AIM-V medium supplemented with recombinant human GM-CSF and recombinant human IL-4 at 37° C. in a humidified CO2 (5%) incubator. Six days later, the immature dendritic cells in the cultures are stimulated with recombinant human TNF-α for maturation. Mature dendritic cells are then harvested on day 8, resuspended in PBS at 1×10^6 per mL with peptide (2 μg/mL), and incubated for 2 hours at 37° C. Autologous CD8+ T cells are enriched from PBMCs using magnetic microbeads (Miltenyi Biotech, Auburn, Calif.). CD8+ T cells (2×10^6 per well) are cocultured with 2×10^5 per well peptide-pulsed dendritic cells in 2 mL/well of AIM-V medium supplemented with 5% human AB serum and 10 units/mL rhIL-7 (Cell Sciences) in each well of 24-well tissue culture plates. About 20 U/ml of IL-2 is added 24 h later at regular intervals, 2 days after each restimulation. […] After 24 hours incubation, IFN-γ in the medium is measured by ELISA assay. […]

[2] = tested on: T2 pulsed Her-2 native peptide; assay: IFN-γ production of Her-2 APL-specific CTLs induced in vitro from patient-derived PBMCs; type: cell-based, human; conditions: among four CTLs, two HLA-A*0201 GBM patients, P<0.05 vs No. 52
Experimental: FIGS. 3A and 3B are bar graphs that show IFN-γ levels after in vitro induction of CTL in patient-derived PBMCs with native or superagonist Her-2 peptides in accordance with an embodiment of the present invention in two different patients.
as §1

[3] = tested on: T cells specific for ML-M epitope 19-30; assay: Epitope-specific T cell responses in mice after IV immunization, measured by cell proliferation in vitro; type: in vivo, C3H mice; conditions: for T cell response after immunization: IV immunization, lymph node T cells recalled with peptides, FIG. 1
Experimental: FIG. 1 is a graph depicting levels of epitope-specific T cell responses in mice following immunization IV with mouse lysozyme-M (ML-M), a mouse lysozyme peptide (p19-30), and a mouse lysozyme peptide modified with dibasic residues (18R31R), as measured by cell proliferation in vitro. T cells were isolated from lymph nodes of the animals (3 animals per group) and response to each immunogen was measured.
In studies using mouse lysozyme-M (ML-M) as a model self Ag, it was observed that mice of diverse MHC haplotypes were tolerant to native (unmutated) ML-M and peptide forms of certain T cell epitopes. It was hypothesized that tolerance to a given epitope was not an inherent structural characteristic, but was attributable in part to inefficient processing of the epitope, owing either to the absence of a proteolytic cleavage site adjacent to that determinant, or to the inaccessibility to the proteolytic enzyme(s) of an existing cleavage site within that region of the molecule. In either case, the provision of a new proteolytic cleavage site adjacent to a cryptic determinant may permit scission of the peptide at that site, making the previously cryptic epitope region available for binding to the appropriate MHC molecule, and lead to presentation to specific T cells of that determinant as a neodominant epitope on the APC surface. To test this proposition, a dibasic motif, consisting of two contiguous basic amino acid residues, e.g., arg-arg (RR) or arg-lys (RK), was used.
The targeted regions within ML-M included residues 19-31, which contain cryptic epitopes for mice of the H-2^k haplotype, shown in Table 7.

H- Y M D Q V P Y S V -NH2 (H-YMDQVPYSV-NH2) [No. 38]
IFN-γ level of CTL stimulated by the peptide [1]: highest IFN-γ level

H- F M A N V A I P H L -NH2 (H-FMANVAIPHL-NH2) [No. 19]
IFN-γ level of CTL stimulated by the peptide [2]: highest IFN-γ level

RR-GYYGVSLADWVC-RR (RRGYYGVSLADWVCRR; RR flanking dibasic residues; Synthetically generated peptide) [RR-p18-31-RR]
T cell response after immunization [3]: raised a potent T cell response | in vitro restimulation of T cells primed by RR-p18-31-RR ([3]; recall antigen in vitro): could be restimulated

B1: mouse lysozyme-M (protein, UniProt P08905 19-148, looked up)
Lysozyme C-2: KVYERCEFARTLKRNGMAGYYGVSLADWVCLAQHESNYNTRATNYNRGDQSTDYGIFQINSRYWCNDGKTPRAVNACGINCSALLQDDITAAIQCAKRVVRDPQGIRAWVAWRAHCQNRDLSQYIRNCGV
notes: model self antigen, native (unmutated) mouse lysozyme-M
T cell response after immunization [3]: failed to respond
